{"source": "patent US9415047B2", "about": "“Use of benzo five-membered nitrogen heterocyclic piperazine or piperidine derivatives” (Liaoning Emmy Biological Pharmaceutical Co., Ltd., priority 2012, dated 2016)", "key": {"[1]": {"system": "NA constricted rabbit aorta", "assay": "Relaxing effects on vascular smooth muscle constricted by noradrenaline (NA) in vitro", "settings": "Oryctolagus cuniculus; relaxation of rabbit aorta constricted by noradrenaline (10^−5 mol/L); mean±SEM, n=5", "outline": "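Rabbit aortic rings in K-H solution, pre-tested with adrenaline (10^−5 mol/L), washed and re-equilibrated 60 min, then constricted with noradrenaline (10^−5 mol/L). Compounds added cumulatively from 1×10^−10 up to 1×10^−2 or 1×10^−3 mol/L; relaxation expressed as % of maximal relaxation versus −log concentration (mean±SEM, n=5).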"}, "[2]": {"system": "α1 receptor", "assay": "Antagonism of accumulative constriction of rabbit aorta by phenylephrine (α-receptor agonist)", "settings": "agonist (R)-phenylephrine", "method": "PE was also added by using the same method 15 min later. […] The curve was shown in FIG. 21 after positive drug doxazosine mesylate (10^−7 mol/L) was added."}, "[3]": {"system": "SD rats", "assay": "Effects on blood pressure of SD rats anesthetized with urethane", "type": "in vivo", "settings": "for diastolic blood pressure (DBP) / mean artery pressure (MAP) / systolic blood pressure (SBP): 1.5 mg/kg gastric gavage, n = 5", "method": "(§1) Four SD rats were anesthetized with urethane ([…]), after vital signs became stable, blood pressure was measured by common carotid intubation. After blood pressure became stable, compound II-2 was administered at 4.0 mg/kg via gastric gavage, blood pressure changes with time were observed and recorded.\nas §1, with “Five” for “Four”, “rats (provided by Experimental Animal Center, China Medical University)” for “rats”, “II-85” for “II-2”, “1.5” for “4.0”"}, "[4]": {"system": "Kunming mice", "assay": "Marrow micronucleus test on mice", "type": "in vivo", "method": "Ten Kunming mice (Experimental Animal Center, China Medical University), half male and half female, were used. Compound II-2 was administered via gastric gavage at 120 mg/kg/day, and II-85 was administered to 74 mg/kg/day. The drug was administered for 4 days continuously. Marrow micronucleus test was performed on day 5.\nMice in positive control group were administered cyclophosphane at 60 mg/kg/day. Mice in negative control group were administered normal saline at 0.1 ml/10 g/day. The drug was administered for 4 days continuously. Marrow micronucleus test was performed on day 5.\nThe mice were killed by snapping neck, and then femur and sternum were excised, with blood and muscles removed, epiphysis cut off. Then marrow from sternum was squeezed to clean glassslide with bovine serum by using a pair of hemostatic forceps, or marrow on femur was flushed directly with bovine serum onto clean glassslide. Then the substance on glassslide were mixed well and smeared. Then the prepared and dried marrow smears were put into staining tank with methanol, fixed for 15 min, picked out to dry in the open air. After marrow smears were dried, it would be stained in freshly prepared Giemsa solution (1 volume of Giemsa stock solution and 9 volumes of pH 6.8 phosphate buffer) for 10 min, staining solution was flushed away with little stream. Then the smear was dried in the open air and observed under a microscope."}, "[5]": {"system": "AD constricted rabbit aorta", "assay": "Relaxing effects on vascular smooth muscle constricted by adrenaline hydrochloride (AD) in vitro", "settings": "Oryctolagus cuniculus; relaxation of rabbit aorta constricted by adrenaline (10^−5 mol/L); mean±SEM, n=5", "outline": "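Rabbit aortic strips in K-H solution precontracted with adrenaline hydrochloride (10^−5 mol/L) after a reproducible second contraction; compounds added cumulatively over ranges from 1×10^−10 up to 1×10^−2 mol/L depending on the compound series. Relaxation expressed as % of maximal relaxation versus −log concentration, mean±SEM, n=5.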"}, "[6]": {"assay": "Experiment on acute toxicity", "settings": "both sexes, Kunming, mouse, in vivo, mice", "description": "Kunming mice (Experimental Animal Center, China Medical University) were used, half male and half female, 18-22 g, brief probability unit method was used to test the acute toxicity of the compound.\nTen Kunming mice (Experimental Animal Center, China Medical University) were used, half male and half female, 18-22 g, brief probability unit method was used to test the acute toxicity of the compound."}, "[7]": {"target": "5-HT2A receptor (Oryctolagus cuniculus, UniProt G1SYA7)", "sequence (G1SYA7 1-469)": "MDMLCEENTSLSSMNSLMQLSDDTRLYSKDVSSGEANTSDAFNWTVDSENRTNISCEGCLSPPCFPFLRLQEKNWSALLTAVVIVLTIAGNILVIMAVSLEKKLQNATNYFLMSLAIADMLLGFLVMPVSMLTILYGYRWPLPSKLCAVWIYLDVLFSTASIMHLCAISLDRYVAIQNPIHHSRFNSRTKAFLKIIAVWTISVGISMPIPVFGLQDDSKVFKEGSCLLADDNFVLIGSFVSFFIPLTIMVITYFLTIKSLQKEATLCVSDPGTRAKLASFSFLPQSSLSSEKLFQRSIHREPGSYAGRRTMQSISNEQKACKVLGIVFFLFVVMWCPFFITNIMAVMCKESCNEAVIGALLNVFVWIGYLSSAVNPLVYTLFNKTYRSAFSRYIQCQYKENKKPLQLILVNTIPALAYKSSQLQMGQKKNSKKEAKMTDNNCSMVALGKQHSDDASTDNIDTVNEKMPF", "assay": "Antagonism of accumulative constriction of rabbit aorta by 5-HT", "quoted_text": "(§2) Rabbits were hit to be dizzy, with thoracic cavity quickly cut open, descending aorta exposed, connective tissues and surrounding fatty tissues (for hydroxytryptamine receptor antagonism test, endothelia should be removed with smooth stainless steel rod) removed, the aorta was cut into 3-5 mm vascular rings which were penetrated together with a steel wire with one end fixed on ventilation hook, another end on pressure tonotransducer. The aorta rings were put into a bath tube with 20 ml of nutritional solution, and the tension changes were recorded by using the recorder. The temperature of bath tube was maintained at 37±0.5° C., and mixed gas (95% O2+5% CO2) was ventilated at a rate of I-2 bubbles/second. The initial load of the sample was 1.5 g, nutritional solution was changed for every 20 min. The sample was balanced for 2 hours, and the experiment would be started when baseline became stable.\nAfter sample tension became stable, a piece of waveform was recorded, 5-HT (10^−7-3×10^−4 mol/L) was added into the bath tube until maximal response, then waveform was recorded. […] 5-HT was also added by using the same method 20 min later. The maximal response was considered 100%, 5-HT constriction percentage was used as Y axis, negative logarithms of different concentrations of 5-HT were used as X axis to draw dose effective curve.\nAfter sample tension became stable, a piece of waveform was recorded, 5-HT (10^−8-10^−3 mol/L) was added into the bath tube until maximal response, then waveform was recorded. […] 5-HT was also added by using the same method 20 min later. The maximal response was considered 100%, 5-HT constriction percentage was used as Y axis, negative logarithms of different concentrations of 5-HT were used as X axis to draw dose effective curve (data were expressed in mean±SEM ( ? ), *P<0.05, **P<0.01, n=7).\nAfter sample tension became stable, a piece of waveform was recorded, 5-HT (10^−8-3×10^−4 mol/L) was added into the bath tube until maximal response, then waveform was recorded. […] 5-HT was also added by using the same method 20 min later. […]"}, "[8]": {"system": "Calcium Channel (Ca^2+)", "assay": "Antagonism of accumulative constriction of rabbit aorta by CaCl2", "settings": "calcium free high kalium depolarization", "quoted_text": "as §2\nAfter sample tension became stable, calcium K-H solution was used to flush the sample for 3 times, and incubated with calcium free K-H solution for 40 min. Calcium free high kalium solution was added into the sample for depolarization for 20 min, then CaCl2 (10^−6-10^−2 mol/L) was added into bath tube till maximal response was achieved, and then waveform was recorded. Then K-H solution was used to flush the sample repeatedly, the K-H solution was changed for every 20 min, and the sample was balanced for 60 min. […]\nAfter sample tension became stable, calcium K-H solution was used to flush the sample for 3 times, and incubated with calcium free K-H solution for 40 min. Calcium free high kalium solution was added into the sample for depolarization for 20 min, then CaCl2 (10^−6-10^−2 mol/L) was added into bath tube till maximal response was achieved, and then waveform was recorded. […] Calcium free high kalium solution was added into the sample for depolarization for 20 min, then amlodipine (10^−7 mol/L) was added into bath tube, which was incubated for 15 min, then CaCl2 (10^−6-10^−2 mol/L) was added by using the same method till maximal response was achieved, and then waveform was recorded. […]"}}, "note": "Entries after “also recorded” stand apart in the source; their conditions may differ."}
{"compound": "Fc1ccc2c(C3CCN(CCCn4nnc5ccccc54)CC3)noc2c1", "note": "[II-85, N-(3-(1H-benzotriazole-1-yl)propyl)4-(3-(6-fluorobenzisoxazolyl))piperidine]", "values": [{"measurement": "EC50", "setting": "[1]", "value": 30.9, "unit": "nM"}, {"measurement": "PA2 value to resist constriction of rabbit aorta by PE", "setting": "[2]", "value": "8.62±0.11"}, {"measurement": "diastolic blood pressure (DBP)", "setting": "[3]; 0 min post dosing", "value": 103.06, "unit": "mmHg"}, {"measurement": "mean artery pressure (MAP)", "setting": "[3]; 0 min post dosing", "value": 116.63, "unit": "mmHg"}, {"measurement": "systolic blood pressure (SBP)", "setting": "[3]; 0 min post dosing", "value": 143.77, "unit": "mmHg"}, {"measurement": "diastolic blood pressure (DBP)", "setting": "[3]; 15 min post dosing", "value": 75.36, "unit": "mmHg"}, {"measurement": "mean artery pressure (MAP)", "setting": "[3]; 15 min post dosing", "value": 91.98, "unit": "mmHg"}, {"measurement": "systolic blood pressure (SBP)", "setting": "[3]; 15 min post dosing", "value": 125.22, "unit": "mmHg"}, {"measurement": "diastolic blood pressure (DBP)", "setting": "[3]; 30 min post dosing", "value": 68.68, "unit": "mmHg"}, {"measurement": "mean artery pressure (MAP)", "setting": "[3]; 30 min post dosing", "value": 84.42, "unit": "mmHg"}, {"measurement": "systolic blood pressure (SBP)", "setting": "[3]; 30 min post dosing", "value": 115.90, "unit": "mmHg"}, {"measurement": "diastolic blood pressure (DBP)", "setting": "[3]; 60 min post dosing", "value": 75.49, "unit": "mmHg"}, {"measurement": "mean artery pressure (MAP)", "setting": "[3]; 60 min post dosing", "value": 91.24, "unit": "mmHg"}, {"measurement": "systolic blood pressure (SBP)", "setting": "[3]; 60 min post dosing", "value": 122.75, "unit": "mmHg"}, {"measurement": "diastolic blood pressure (DBP)", "setting": "[3]; 90 min post dosing", "value": 83.32, "unit": "mmHg"}, {"measurement": "mean artery pressure (MAP)", "setting": "[3]; 90 min post dosing", "value": 97.37, "unit": "mmHg"}, {"measurement": "systolic blood pressure (SBP)", "setting": "[3]; 90 min post dosing", "value": 125.48, "unit": "mmHg"}, {"measurement": "diastolic blood pressure (DBP)", "setting": "[3]; 120 min post dosing", "value": 83.71, "unit": "mmHg"}, {"measurement": "mean artery pressure (MAP)", "setting": "[3]; 120 min post dosing", "value": 96.77, "unit": "mmHg"}, {"measurement": "systolic blood pressure (SBP)", "setting": "[3]; 120 min post dosing", "value": 122.89, "unit": "mmHg"}, {"measurement": "diastolic blood pressure (DBP)", "setting": "[3]; 150 min post dosing", "value": 95.06, "unit": "mmHg"}, {"measurement": "mean artery pressure (MAP)", "setting": "[3]; 150 min post dosing", "value": 108.73, "unit": "mmHg"}, {"measurement": "systolic blood pressure (SBP)", "setting": "[3]; 150 min post dosing", "value": 136.08, "unit": "mmHg"}, {"measurement": "diastolic blood pressure (DBP)", "setting": "[3]; 180 min post dosing", "value": 86.22, "unit": "mmHg"}, {"measurement": "mean artery pressure (MAP)", "setting": "[3]; 180 min post dosing", "value": 100.11, "unit": "mmHg"}, {"measurement": "systolic blood pressure (SBP)", "setting": "[3]; 180 min post dosing", "value": 127.90, "unit": "mmHg"}, {"measurement": "diastolic blood pressure (DBP)", "setting": "[3]; 210 min post dosing", "value": 97.96, "unit": "mmHg"}, {"measurement": "mean artery pressure (MAP)", "setting": "[3]; 210 min post dosing", "value": 111.02, "unit": "mmHg"}, {"measurement": "systolic blood pressure (SBP)", "setting": "[3]; 210 min post dosing", "value": 137.13, "unit": "mmHg"}, {"measurement": "diastolic blood pressure (DBP)", "setting": "[3]; 240 min post dosing", "value": 102.84, "unit": "mmHg"}, {"measurement": "mean artery pressure (MAP)", "setting": "[3]; 240 min post dosing", "value": 115.95, "unit": "mmHg"}, {"measurement": "systolic blood pressure (SBP)", "setting": "[3]; 240 min post dosing", "value": 142.19, "unit": "mmHg"}, {"measurement": "time until blood pressures recovered to those before drug dosing", "setting": "[3]; anesthetized SD rats, gastric gavage", "value": 6, "unit": "h"}, {"measurement": "oral absorption", "setting": "[3]; in vivo bulk testing on rats", "value": "good oral absorption"}, {"measurement": "hypotensive effects", "setting": "[3]; rats, gastric gavage", "value": "obvious hypotensive effects; also recorded: good hypotensive effects"}, {"measurement": "marrow micronucleus test result", "setting": "[4]", "value": "negative"}, {"measurement": "micronuclei cells in 1000 polychromatic erythrocytes", "setting": "[4]; dosed 4 days, test on day 5, II-2 120, II-85 74, cyclophosphane 60 mg/kg/day", "value": "2.5±0.373", "unit": "%"}, {"measurement": "EC50", "setting": "[5]", "value": 50.1, "unit": "nM"}, {"measurement": "LD50", "setting": "[6]; intraperitoneal, intraabdominal injection", "value": 108, "unit": "mg/kg"}, {"measurement": "LD50", "setting": "[6]; po, gastric gavage", "value": 222, "unit": "mg/kg"}, {"measurement": "Kb", "setting": "[7]", "value": 0.871, "unit": "nM"}, {"measurement": "PA2 value to resist constriction of rabbit aorta by CaCl2", "setting": "[8]", "value": "6.10±0.13"}]}
